According to US20230357239A1, “PYRIDO[2,3-D]PYRIMIDIN-4-AMINES AS SOS1 INHIBITORS” (Bayer Aktiengesellschaft, priority 2020, published 2023):

Molecular target: human SOS1 (SOS1) with human K-RasG12C (Homo sapiens (Human), UniProt Q07889)
Assay: hK-RasG12C interaction assay with hSOS1 (HTRF)
Format: binding
Conditions: GST-hK-RasG12C and His-hSOS1, 60 min incubation at 20° C, mean, read-out: K-RasG12C - SOS interaction assay IC50 - [mol/l] (mean)
Method: Biochemical Assay: hK-RasG12C Interaction Assay with hSOS1
This assay quantifies the equilibrium interaction of human SOS1 (SOS1) with human K-Ras^G12C (K-RasG12C). Detection of the interaction is achieved by measuring homogenous time-resolved fluorescence resonance energy transfer (HTRF) from antiGST-Europium (FRET donor) bound to GST-K-RasG12C to anti-6His-XL665 bound to His-tagged hSOS1 (FRET-acceptor).
The assay buffer containes 5 mM HEPES pH 7.4 (Applichem), 150 mM NaCl (Sigma), 10 mM EDTA (Promega), 1 mM DTT (Thermofisher), 0.05% BSA Fraction V, pH 7.0, (ICN Biomedicals), 0.0025% (v/v) Igepal (Sigma) and 100 mM KF (FLUKA).
Concentrations of protein batches used are optimized to be within the linear range of the HTRF signal. A Ras working solution is prepared in assay buffer containing typically 10 nM GST-hK-RasG12C and 2 nM antiGST-Eu(K) (Cisbio, France). A SOS1 working solution is prepared in assay buffer containing typically 20 nM His-hSOS1 and 10 nM anti-6His-XL665 (Cisbio, France). An inhibitor control solution is prepared in assay buffer containing 10 nM anti-6His-XL665 without SOS1.
Fifty nl of a 100-fold concentrated solution of the test compound in DMSO are transferred into a black microtiter test plate (384 or 1536, Greiner Bio-One, Germany).
For this, either a Hummingbird liquid handler (Digilab, MA, USA) or an Echo acoustic system (Labcyte, CA, USA) is used.
All steps of the assay are performed at 20° C. A volume of 2.5 μl of the Ras working solution is added to all wells of the test plate using a Multidrop dispenser (Thermo Labsystems). After 2 min preincubation, 2.5 μl of the SOS1 working solution are added to all wells except for those wells at the side of the test plate that are subsequently filled with 2.5 μl of the inhibitor control solution. After 60 min incubation the fluorescence is measured with a Pherastar (BMG, Germany) using the HTRF module (excitation 337 nm, emission 1: 620 nm, emission 2: 665 nm).
The ratiometric data (emission 2 divided by emission 1) are normalized using the controls (DMSO=0% inhibition, inhibition control wells with inhibitor control solution=100% inhibition). […] IC50 values are calculated by 4-Parameter fitting using a commercial software package (Genedata Screener, Switzerland).

Sequence of human SOS1 (SOS1) with human K-RasG12C (Q07889 564-1049): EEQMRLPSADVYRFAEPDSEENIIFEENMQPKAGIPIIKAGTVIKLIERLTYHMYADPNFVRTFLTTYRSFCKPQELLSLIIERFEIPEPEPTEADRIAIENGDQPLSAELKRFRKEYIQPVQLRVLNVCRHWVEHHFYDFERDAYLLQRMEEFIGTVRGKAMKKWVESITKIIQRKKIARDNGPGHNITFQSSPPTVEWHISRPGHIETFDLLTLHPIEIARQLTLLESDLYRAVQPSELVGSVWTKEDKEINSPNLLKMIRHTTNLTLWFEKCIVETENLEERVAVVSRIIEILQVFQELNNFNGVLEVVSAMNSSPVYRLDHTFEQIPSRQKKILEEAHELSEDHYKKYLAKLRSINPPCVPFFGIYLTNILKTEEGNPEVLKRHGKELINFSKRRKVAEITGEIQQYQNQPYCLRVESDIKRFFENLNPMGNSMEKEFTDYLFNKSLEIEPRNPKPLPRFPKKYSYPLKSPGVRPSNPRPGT

Q: Which IC50 does the source give for `Cc1nc(N[C@H](C)c2cccc(C(F)(F)F)c2C)c2cc(N(C)S(C)(=O)=O)cnc2n1` [Example 33, N-methyl-N-[2-methyl-4-({(1R)-1-[2-methyl-3-(trifluoromethyl)phenyl]ethyl}amino)pyrido[2,3-d]pyrimidin-6-yl]methanesulfonamide] here?
A: Its IC50 is 27.9 nM.

Q: With `CC(=O)N1CC2(C1)CN(c1cc3c(N[C@H](C)c4cccc(C(F)(F)CO)c4F)nc(C)nc3nc1C(F)(F)F)C2` [Example 24, 1-{6-[4-({(1R)-1-[3-(1,1-difluoro-2-hydroxyethyl)-2-fluorophenyl]ethyl}amino)-2-methyl-7-(trifluoromethyl)pyrido[2,3-d]pyrimidin-6-yl]-2,6-diazaspiro[3.3]heptan-2-yl}ethan-1-one] as the compound, how does the IC50 read?
A: Its IC50 is 2.8 nM.

Q: `CC(=O)N1CCN(c2cc3c(N[C@H](C)c4cccc(C(F)(F)F)c4C)nc(C)nc3nc2C)CC1` [Example 19, 1-{4-[2,7-dimethyl-4-({(1R)-1-[2-methyl-3-(trifluoromethyl)phenyl]ethyl}amino)pyrido[2,3-d]pyrimidin-6-yl]piperazin-1-yl}ethan-1-one] was tested. Which IC50 did it give?
A: Its IC50 is 8.25 nM.

Q: Which IC50 does the source give for `CC(=O)N1CC=C(c2cnc3ncnc(N[C@H](C)c4cccc(C(F)(F)F)c4)c3c2)CC1` [Example 5, 1-{4-[4-({(1R)-1-[3-(trifluoromethyl)phenyl]ethyl}amino)pyrido[2,3-d]pyrimidin-6-yl]-3,6-dihydropyridin-1(2H)-yl}ethan-1-one] here?
A: Its IC50 is 4.24 nM.

Q: How did the IC50 turn out when `CC(=O)N1CCN(c2cc3c(N[C@H](C)c4cccc(C(F)(F)F)c4C)nc(C)nc3nc2C)C(=O)C1` [Example 68, 4-acetyl-1-[2,7-dimethyl-4-({(1R)-1-[2-methyl-3-(trifluoromethyl)phenyl]ethyl}amino)pyrido[2,3-d]pyrimidin-6-yl]piperazin-2-one] was run?
A: Its IC50 is 2.93 nM.

Q: `Cc1nc(N[C@H](C)c2cccc(C(F)(F)C(C)(C)O)c2F)c2cc(N3CCN(C)CC3)cnc2n1` [Example 52, 1,1-difluoro-1-{2-fluoro-3-[(1R)-1-{[2-methyl-6-(4-methylpiperazin-1-yl)pyrido[2,3-d]pyrimidin-4-yl]amino}ethyl]phenyl}-2-methylpropan-2-ol] was tested. Which IC50 did it give?
A: Its IC50 is 4.48 nM.

Q: With `CC(=O)N[C@@H]1CCN(c2cnc3ncnc(N[C@H](C)c4cccc(C(F)(F)F)c4)c3c2)C1` [Example 2, N-{(3R)-1-[4-({(1R)-1-[3-(trifluoromethyl)phenyl]ethyl}amino)pyrido[2,3-d]pyrimidin-6-yl]pyrrolidin-3-yl}acetamide] as the compound, how does the IC50 read?
A: The IC50 was 34 nM.

Q: Which IC50 does the source give for `CC(=O)N1CC=C(c2cc3c(N[C@H](C)c4cccc(C(F)F)c4F)nc(C)nc3nc2C)CC1` [Example 56, 1-{4-[4-({(1R)-1-[3-(difluoromethyl)-2-fluorophenyl]ethyl}amino)-2,7-dimethylpyrido[2,3-d]pyrimidin-6-yl]-3,6-dihydropyridin-1(2H)-yl}ethan-1-one] here?
A: Its IC50 is 14.1 nM.

Q: With `CC(=O)N1CCC(c2cnc3ncnc(N[C@H](C)c4cccc(C(F)(F)F)c4)c3c2)CC1` [Example 9, 1-{4-[4-({(1R)-1-[3-(trifluoromethyl)phenyl]ethyl}amino)pyrido[2,3-d]pyrimidin-6-yl]piperidin-1-yl}ethan-1-one] as the compound, how does the IC50 read?
A: The IC50 was 64.3 nM.

Q: For `CC(=O)N1CC2(C1)CN(c1cc3c(N[C@H](C)c4cccc(C(F)(F)C(C)(C)O)c4F)nc(C)nc3nc1C(F)(F)F)C2` [Example 70, 1-{6-[4-({(1R)-1-[3-(1,1-difluoro-2-hydroxy-2-methylpropyl)-2-fluorophenyl]ethyl}amino)-2-methyl-7-(trifluoromethyl)pyrido[2,3-d]pyrimidin-6-yl]-2,6-diazaspiro[3.3]heptan-2-yl}ethan-1-one], which IC50 is on record?
A: The IC50 was 5.47 nM.

Q: With `CC(=O)N[C@@H]1CCN(c2cnc3ncnc(N[C@H](C)c4cccc(C(F)(F)F)c4C)c3c2)C1` [Example 11, N-{(3R)-1-[4-({(1R)-1-[2-methyl-3-(trifluoromethyl)phenyl]ethyl}amino)pyrido[2,3-d]pyrimidin-6-yl]pyrrolidin-3-yl}acetamide] as the compound, how does the IC50 read?
A: The IC50 was 17.6 nM.

Q: Which IC50 does the source give for `CC(=O)N1CC2(C1)CN(c1cc3c(N[C@H](C)c4cccc(C(F)(F)C(C)(C)O)c4F)nc(C)nc3nc1C)C2` [Example 60, 1-{6-[4-({(1R)-1-[3-(1,1-difluoro-2-hydroxy-2-methylpropyl)-2-fluorophenyl]ethyl}amino)-2,7-dimethylpyrido[2,3-d]pyrimidin-6-yl]-2,6-diazaspiro[3.3]heptan-2-yl}ethan-1-one] here?
A: The IC50 was 3410 nM.

Q: For `CC(=O)N1CCC(c2cnc3nc(C)nc(N[C@H](C)c4cccc(C(F)(F)C(C)(C)O)c4F)c3c2)CC1` [Example 47, 1-{4-[4-({(1R)-1-[3-(1,1-difluoro-2-hydroxy-2-methylpropyl)-2-fluorophenyl]ethyl}amino)-2-methylpyrido[2,3-d]pyrimidin-6-yl]piperidin-1-yl}ethan-1-one], which IC50 is on record?
A: The IC50 was 4 nM.

Q: Which IC50 does the source give for `CC(=O)N1CC(c2cnc3nc(C)nc(N[C@H](C)c4cccc(C(F)(F)F)c4C)c3c2)C1` [Example 40, 1-{3-[2-methyl-4-({(1R)-1-[2-methyl-3-(trifluoromethyl)phenyl]ethyl}amino)pyrido[2,3-d]pyrimidin-6-yl]azetidin-1-yl}ethan-1-one] here?
A: The IC50 was 16.1 nM.

Q: With `CC(=O)N1CC2(C1)CN(c1cnc3nc(C)nc(N[C@H](C)c4cccc(C(F)(F)F)c4C)c3c1)C2` [Example 13, 1-{6-[2-methyl-4-({(1R)-1-[2-methyl-3-(trifluoromethyl)phenyl]ethyl}amino)pyrido[2,3-d]pyrimidin-6-yl]-2,6-diazaspiro[3.3]heptan-2-yl}ethan-1-one-hydrogen chloride (1/1)] as the compound, how does the IC50 read?
A: Its IC50 is 6.35 nM.

Q: How did the IC50 turn out when `CC(=O)N[C@@H]1CCN(c2cnc3nc(C)nc(N[C@H](C)c4cccc(C(F)(F)F)c4C)c3c2)C1` [Example 16, N-{(3R)-1-[2-methyl-4-({(1R)-1-[2-methyl-3-(trifluoromethyl)phenyl]ethyl}amino)pyrido[2,3-d]pyrimidin-6-yl]pyrrolidin-3-yl}acetamide] was run?
A: The IC50 was 17.5 nM.

Q: `Cc1nc(N[C@H](C)c2cccc(C(F)F)c2F)c2cc(N3CCCS3(=O)=O)c(C)nc2n1` [Example 39, 2-[4-({(1R)-1-[3-(difluoromethyl)-2-fluorophenyl]ethyl}amino)-2,7-dimethylpyrido[2,3-d]pyrimidin-6-yl]-1 lambda^6,2-thiazolidine-1,1-dione] was tested. Which IC50 did it give?
A: The IC50 was 16.2 nM.

Q: How did the IC50 turn out when `C[C@@H](Nc1ncnc2ncc(N3CCN(C)CC3)cc12)c1cccc(C(F)(F)F)c1` [Example 3, 6-(4-methylpiperazin-1-yl)—N-{(1R)-1-[3-(trifluoromethyl)phenyl]ethyl}pyrido[2,3-d]pyrimidin-4-amine] was run?
A: Its IC50 is 13.9 nM.

Q: Which IC50 does the source give for `CC(=O)N1CC[N+]([O-])(c2cnc3nc(C)nc(N[C@H](C)c4cccc(C(F)(F)F)c4C)c3c2)CC1` [Example 36, 1-{4-[2-methyl-4-({(1R)-1-[2-methyl-3-(trifluoromethyl)phenyl]ethyl}amino)pyrido[2,3-d]pyrimidin-6-yl]-4-oxo-4lambda^5-piperazin-1-yl}ethan-1-one] here?
A: The IC50 was 6.46 nM.

Q: `Cc1nc(N[C@H](C)c2cccc(C(F)(F)F)c2C)c2cc(N3CC4(CN(C(N)=O)C4)C3)cnc2n1` [Example 48, 6-[2-methyl-4-({(1R)-1-[2-methyl-3-(trifluoromethyl)phenyl]ethyl}amino)pyrido[2,3-d]pyrimidin-6-yl]-2,6-diazaspiro[3.3]heptane-2-carboxamide] was tested. Which IC50 did it give?
A: The IC50 was 9.95 nM.

Q: With `CC(=O)N1CC=C(c2cc3c(N[C@H](C)c4cccc(C(F)(F)F)c4C)nc(C)nc3nc2C(F)(F)F)CC1` [Example 41, 1-{4-[2-methyl-4-({(1R)-1-[2-methyl-3-(trifluoromethyl)phenyl]ethyl}amino)-7-(trifluoromethyl)pyrido[2,3-d]pyrimidin-6-yl]-3,6-dihydropyridin-1(2H)-yl}ethan-1-one] as the compound, how does the IC50 read?
A: Its IC50 is 23 nM.

Q: Which IC50 does the source give for `CC(=O)N1CCC(c2cc3c(N[C@H](C)c4cccc(C(F)(F)C(C)(C)O)c4F)nc(C)nc3nc2C)=C(C)C1` [Example 62, 1-{4-[4-({(1R)-1-[3-(1,1-difluoro-2-hydroxy-2-methylpropyl)-2-fluorophenyl]ethyl}amino)-2,7-dimethylpyrido[2,3-d]pyrimidin-6-yl]-5-methyl-3,6-dihydropyridin-1(2H)-yl}ethan-1-one] here?
A: Its IC50 is 14.5 nM.

Q: How did the IC50 turn out when `CC(=O)N1CC=C(c2cnc3nc(C)nc(N[C@H](C)c4cccc(C(F)F)c4F)c3c2)CC1` [Example 43, 1-{4-[4-({(1R)-1-[3-(difluoromethyl)-2-fluorophenyl]ethyl}amino)-2-methylpyrido[2,3-d]pyrimidin-6-yl]-3,6-dihydropyridin-1(2H)-yl}ethan-1-one] was run?
A: Its IC50 is 5.2 nM.
